# Reference: PubChem BioAssay (NCI)
#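 Interpolation was linear, between the two tested concentrations surrounding the appropriate level; five concentrations were tested over 48 hours in 96-well plates. GI50 is the concentration that inhibits growth by half. At the TGI there is no net growth.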
# Assays:
# Assay in all cases: DTP human tumour cell line panel, 48 h
# SF-268 CNS = system: SF-268 CNS
# HOP-62 NSCLC = system: HOP-62 NSCLC
# MALME-3M melanoma = system: MALME-3M melanoma
# IGROV1 ovarian = system: IGROV1 ovarian
# HL-60(TB) leukemia = system: HL-60(TB) leukemia
# SF-539 CNS = system: SF-539 CNS
# KM12 colon = system: KM12 colon
# OVCAR-3 ovarian = system: OVCAR-3 ovarian
# A498 renal = system: A498 renal
# HCC-2998 colon = system: HCC-2998 colon
# KM20L2 colon = system: KM20L2 colon
# DMS 114 small cell lung = system: DMS 114 small cell lung
# OVCAR-8 ovarian = system: OVCAR-8 ovarian
Structure (SMILES),TGI (SF-268 CNS),TGI (HOP-62 NSCLC),TGI (MALME-3M melanoma),TGI (IGROV1 ovarian),TGI (HL-60(TB) leukemia),TGI (SF-539 CNS),TGI (KM12 colon),TGI (OVCAR-3 ovarian),TGI (A498 renal),TGI (HCC-2998 colon),TGI (KM20L2 colon),TGI (DMS 114 small cell lung),TGI (OVCAR-8 ovarian),GI50 (HL-60(TB) leukemia),GI50 (SF-268 CNS),GI50 (DMS 114 small cell lung),GI50 (HOP-62 NSCLC),GI50 (MALME-3M melanoma),GI50 (IGROV1 ovarian)
CCCc1c(-c2ccccc2)[nH]c2ccccc2c1=O,> 100 µM,> 100 µM,> 100 µM,> 100 µM,> 100 µM,> 100 µM,88.2 µM,> 100 µM,79 µM,65.4 µM,,,,,,,,,
Nc1ccn(C2C=C(CO)C(O)C2O)c(=O)c1 (centres undefined),> 625 µM,> 625 µM,,> 625 µM,> 625 µM,> 625 µM,> 625 µM,> 625 µM,,> 625 µM,> 625 µM,> 625 µM,> 625 µM,,,,,,
COc1nc(=O)n(COC(CO)CN2C(=O)c3ccccc3C2=O)cc1Cc1cccc(OCc2ccccc2)c1 (centres undefined),,,,58.8 µM,41.8 µM,34.2 µM,91.3 µM,58.9 µM,,43 µM,55.7 µM,59.1 µM,> 100 µM,,,,,,
O=C1OC2(CC1C1(O)C3CC4CC(C3)CC1C4)C1CC3CC(C1)CC2C3 (centres undefined),> 100 µM,,> 100 µM,> 100 µM,> 100 µM,> 100 µM,> 100 µM,> 100 µM,84.5 µM,,,> 100 µM,> 100 µM,,,,,,
C=CC1(NC(=O)c2ccccc2)CCC(C(C)(C)C)CC1 (centres undefined),> 100 µM,> 90.5 µM,> 94.9 µM,> 100 µM,33 µM,> 100 µM,> 100 µM,86.7 µM,> 100 µM,> 100 µM,39.7 µM,> 90.7 µM,> 100 µM,,,,,,
CN(C)CCCN1c2ccccc2Sc2ccc3ccccc3c21,23.4 µM,24.8 µM,21.6 µM,23.4 µM,0.0372 µM,30.9 µM,19.3 µM,21.7 µM,14 µM,3.04 µM,,,27.1 µM,,,,,,
N#C[C@H](OC1OC(COC2OC(CO)C(O)C(O)C2O)C(O)C(O)C1O)c1ccccc1 (some centres undefined),> 250 µM,> 250 µM,> 250 µM,> 250 µM,> 141 µM,> 250 µM,> 250 µM,> 250 µM,> 11.6 µM,> 250 µM,> 250 µM,> 250 µM,> 250 µM,> 141 µM,,,,,
CCN(CC)c1ccc2cc(C(=O)Nc3ccc4[nH]c(C(=O)N5C[C@@H](CCl)c6c5cc(OC(=O)Nc5ccccc5)c5[nH]cc(C)c65)cc4c3)oc2c1,742 µM,,> 1000 µM,> 1000 µM,624 µM,796 µM,> 1000 µM,> 1000 µM,0.000864 µM,> 1000 µM,> 1000 µM,> 1000 µM,> 1000 µM,125 µM,133 µM,254 µM,104 µM,510 µM,914 µM
O=C(CCl)NNC1=Nc2ccc(Cl)cc2SC1,3.92 µM,31.8 µM,3.31 µM,3.58 µM,3.3 µM,3.77 µM,9.94 µM,3.28 µM,35.1 µM,9.97 µM,9.18 µM,3.86 µM,2.02 µM,,,,,,
